Reference: a compilation of properties of binary mixtures (doi:10.1016/j.molliq.2017.11.153)

Test: xn = mol fraction of the nth substance listed
Conditions: 101 kPa

CCCC[n+]1ccccc1.N#C[N-]C#N + CC1COC(=O)O1
Conditions	electrical conductivity [S/m]	viscosity [mPa·s]
288.15 K, x1 = 0.197	0.742	6.99
288.15 K, x1 = 0.3005	1.42	9.49
288.15 K, x1 = 0.4003	1.56	13.97
288.15 K, x1 = 0.4997	1.5	17.55
288.15 K, x1 = 0.6002	1.73	22.95
288.15 K, x1 = 0.7011	1.64	29.62
288.15 K, x1 = 0.7885	1.86	36.03
288.15 K, x1 = 0.9008	1.76	44.07
288.15 K, x1 = 1	1.05	51.49
293.15 K, x1 = 0.1003	0.749	4.23
293.15 K, x1 = 0.197	0.986	5.99
293.15 K, x1 = 0.3005	1.54	8.102
293.15 K, x1 = 0.4003	1.7	11.73
293.15 K, x1 = 0.6002	1.89	18.85
293.15 K, x1 = 0.7011	1.8	24.05
293.15 K, x1 = 0.7885	2.06	29.56
293.15 K, x1 = 0.9008	1.96	36.12
293.15 K, x1 = 1	1.24	41.05
298.15 K, x1 = 0.1003	0.979	3.756
298.15 K, x1 = 0.197	1.25	5.229
298.15 K, x1 = 0.4003	1.92	10
298.15 K, x1 = 0.4997	1.92	12.17
298.15 K, x1 = 0.6002	2.1	15.72
298.15 K, x1 = 0.9008	2.19	29.65
298.15 K, x1 = 1	1.48	33.27
303.15 K, x1 = 0.1003	1.18	3.361
303.15 K, x1 = 0.197	1.49	4.616
303.15 K, x1 = 0.4003	2.13	8.585
303.15 K, x1 = 0.4997	2.16	10.33
303.15 K, x1 = 0.7011	2.3	16.61
303.15 K, x1 = 0.7885	2.54	20.61
303.15 K, x1 = 0.9008	2.44	24.44
303.15 K, x1 = 1	1.75	27.62
308.15 K, x1 = 0.197	1.71	4.109
308.15 K, x1 = 0.4003	2.36	7.468
308.15 K, x1 = 0.4997	2.37	8.918
308.15 K, x1 = 0.6002	2.6	11.36
308.15 K, x1 = 0.7885	2.82	17.47
308.15 K, x1 = 0.9008	2.72	20.45
308.15 K, x1 = 1	2.01	22.9
313.15 K, x1 = 0.197	1.97	3.689
313.15 K, x1 = 0.4003	2.62	6.563
313.15 K, x1 = 0.4997	2.63	7.769
313.15 K, x1 = 0.6002	2.85	9.83
313.15 K, x1 = 0.7011	2.8	12.08
313.15 K, x1 = 0.7885	3.1	14.86
313.15 K, x1 = 0.9008	3	17.22
313.15 K, x1 = 1	2.26	19.3
318.15 K, x1 = 0.197	2.19	3.335
318.15 K, x1 = 0.3005	2.75	4.265
318.15 K, x1 = 0.4003	2.89	5.812
318.15 K, x1 = 0.4997	2.92	6.839
318.15 K, x1 = 0.6002	3.13	8.579
318.15 K, x1 = 0.7885	3.39	12.44
318.15 K, x1 = 0.9008	3.28	14.84
318.15 K, x1 = 1	2.54	16.73
323.15 K, x1 = 0.1003	2	2.291
323.15 K, x1 = 0.4003	3.17	5.183
323.15 K, x1 = 0.4997	3.27	6.066
323.15 K, x1 = 0.6002	3.42	7.559
323.15 K, x1 = 0.9008	3.6	12.65
323.15 K, x1 = 1	2.88	14.44
328.15 K, x1 = 0.1003	2.23	2.121
328.15 K, x1 = 0.197	2.71	2.794
328.15 K, x1 = 0.3005	3.33	3.481
328.15 K, x1 = 0.4003	3.48	4.656
328.15 K, x1 = 0.4997	3.61	5.42
328.15 K, x1 = 0.7011	3.77	8.083
328.15 K, x1 = 0.7885	4.05	9.34
328.15 K, x1 = 0.9008	3.93	11.05
333.15 K, x1 = 0.1003	2.43	1.968
333.15 K, x1 = 0.4003	3.83	4.209
333.15 K, x1 = 0.4997	3.94	4.876
333.15 K, x1 = 0.6002	4.07	6.001
333.15 K, x1 = 0.7885	4.4	8.312
333.15 K, x1 = 0.9008	4.29	9.53
338.15 K, x1 = 0.1003	2.64	1.834
338.15 K, x1 = 0.3005	4.02	2.906
338.15 K, x1 = 0.4003	4.17	3.827
338.15 K, x1 = 0.4997	4.3	4.429
338.15 K, x1 = 0.6002	4.43	5.401
338.15 K, x1 = 0.7011	4.53	6.433
338.15 K, x1 = 0.7885	4.78	7.324
338.15 K, x1 = 0.9008	4.68	8.488
338.15 K, x1 = 1	3.83	9.79
343.15 K, x1 = 0.1003	2.85	1.716
343.15 K, x1 = 0.197	3.42	2.232
343.15 K, x1 = 0.3005	4.37	2.675
343.15 K, x1 = 0.4003	4.53	3.498
343.15 K, x1 = 0.4997	4.68	4.039
343.15 K, x1 = 0.6002	4.83	4.891
343.15 K, x1 = 0.7885	5.21	6.724
343.15 K, x1 = 1	4.21	8.771
348.15 K, x1 = 0.1003	3.07	1.612
348.15 K, x1 = 0.197	3.69	2.089
348.15 K, x1 = 0.4003	4.92	3.213
348.15 K, x1 = 0.4997	5.12	3.704
348.15 K, x1 = 0.6002	5.3	4.454
348.15 K, x1 = 0.7885	5.72	6.247
348.15 K, x1 = 0.9008	5.61	6.724
348.15 K, x1 = 1	4.53	7.884
353.15 K, x1 = 0.1003	3.26	1.519
353.15 K, x1 = 0.197	3.93	1.964
353.15 K, x1 = 0.3005	5.11	2.296
353.15 K, x1 = 0.4997	5.58	3.414
353.15 K, x1 = 0.6002	5.79	4.076
353.15 K, x1 = 0.7011	5.98	4.787
353.15 K, x1 = 0.7885	6.29	5.647
353.15 K, x1 = 0.9008	6.14	6.159
353.15 K, x1 = 1	4.93	7.129

CC1COC(=O)O1 (configuration not stated) + CCCC[n+]1ccccc1.N#C[N-]C#N
x2 = 0
Conditions	viscosity [mPa·s]
288.15 K	3.064
293.15 K	2.738
298.15 K	2.469
303.15 K	2.24
308.15 K	2.042
313.15 K	1.873
323.15 K	1.595
328.15 K	1.464
338.15 K	1.277
343.15 K	1.195
348.15 K	1.122
353.15 K	1.056
